From ChEMBL document CHEMBL3856211, “A critical review of both the synthesis approach and the receptor profile of the 8-chloro-1-(2',4'-dichlorophenyl)-N-piperidin-1-yl-1,4,5,6-tetrahydrobenzo[6,7]cyclohepta[1,2-c]pyrazole-3-carboxamide and analogue derivatives” (Eur J Med Chem, 2016)
pKi: −log10 of the molar value. Values joined by “and” are separate entries in the source; they are usually repeats but may differ in a detail not shown here. Identical values can stand only once. Active and inactive are the calls of the source. The rule behind the calls is not given here.

What was measured:
Cannabinoid receptor 1 [1] = biological target: Cannabinoid receptor 1 (Mus musculus, UniProt P47746); assay: Displacement of [3H]-CP55,940 from CB1 receptor in mouse whole brain membranes after 60 mins by liquid scintillation spectrometry; type: cell membranes, Membrane
Chain of Cannabinoid receptor 1 (Mus musculus, UniProt P47746) (P47746 whole entry): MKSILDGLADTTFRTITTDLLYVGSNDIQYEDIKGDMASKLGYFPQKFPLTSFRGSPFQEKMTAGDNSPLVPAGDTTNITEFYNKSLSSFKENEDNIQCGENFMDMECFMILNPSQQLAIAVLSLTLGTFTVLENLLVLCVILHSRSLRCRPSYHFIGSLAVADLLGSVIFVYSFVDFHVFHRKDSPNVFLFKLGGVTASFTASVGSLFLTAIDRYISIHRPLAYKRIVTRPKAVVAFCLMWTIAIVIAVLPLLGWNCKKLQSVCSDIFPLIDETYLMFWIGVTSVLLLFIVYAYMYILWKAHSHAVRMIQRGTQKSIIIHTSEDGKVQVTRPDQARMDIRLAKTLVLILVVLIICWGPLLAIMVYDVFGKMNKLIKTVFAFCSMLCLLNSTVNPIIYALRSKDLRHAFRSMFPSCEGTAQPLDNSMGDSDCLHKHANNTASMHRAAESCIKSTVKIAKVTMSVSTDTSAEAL

Cannabinoid receptor 2 = Cannabinoid receptor 2 (Homo sapiens, UniProt P34972); assay: Displacement of [3H]-CP55,940 from human CB2 receptor transfected in CHO cell membranes after 60 mins by liquid scintillation spectrometry
Chain of Cannabinoid receptor 2 (P34972 whole entry): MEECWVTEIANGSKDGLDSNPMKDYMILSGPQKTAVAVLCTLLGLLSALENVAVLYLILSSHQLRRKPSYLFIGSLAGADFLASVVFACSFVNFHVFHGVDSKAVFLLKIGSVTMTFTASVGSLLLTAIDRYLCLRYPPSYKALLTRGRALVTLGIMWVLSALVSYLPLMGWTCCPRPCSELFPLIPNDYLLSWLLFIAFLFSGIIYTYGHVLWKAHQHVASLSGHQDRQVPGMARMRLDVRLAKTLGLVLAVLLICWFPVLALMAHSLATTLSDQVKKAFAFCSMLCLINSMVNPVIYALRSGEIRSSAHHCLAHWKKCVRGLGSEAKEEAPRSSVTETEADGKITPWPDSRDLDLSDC

[2] = biological target: Cannabinoid receptor 1 (Mus musculus) (UniProt P47746); assay: Intrinsic activity at CB1 receptor in mouse N1E-115 cells assessed as phosphorylation of ERK1/2 at 1 nM to 10 uM after 10 mins by Western blot method; type: cell-based
Chain of Cannabinoid receptor 1 (Mus musculus) (P47746 whole entry): as the sequence (P47746 whole entry) above

[3] = Selectivity ratio of Ki for human CB2 receptor to Ki for CB1 receptor in mouse whole brain membranes; type: cell membranes
[4] = biological target: Cannabinoid receptor 1 (Mus musculus) (UniProt P47746); assay: Intrinsic activity at CB1 receptor in mouse N1E-115 cells assessed as phosphorylation of ERK1/2 at 1 uM after 10 mins by Western blot method relative to control; type: cell-based
[5] = biological target: Cannabinoid receptor 1 (Mus musculus) (UniProt P47746); assay: Antagonist activity at CB1 receptor in mouse N1E-115 cells assessed as inhibition of WIN55,212-2-induced phosphorylation of ERK1/2 by measuring phosphorylated ERK1/2 level at 1 uM preincubated for 5 mins followed by WIN55,212-2 addition measured after 10 mins by Western blot method; type: cell-based; set-up: scale not given: the % may be the effect or the level left
Cannabinoid receptor 1 [6] = biological target: Cannabinoid receptor 1 (Homo sapiens, UniProt P21554); assay: Displacement of [3H]-CP55,940 from human CB1 receptor transfected in CHO cell membranes
Chain of Cannabinoid receptor 1 (Homo sapiens, UniProt P21554) (P21554 whole entry): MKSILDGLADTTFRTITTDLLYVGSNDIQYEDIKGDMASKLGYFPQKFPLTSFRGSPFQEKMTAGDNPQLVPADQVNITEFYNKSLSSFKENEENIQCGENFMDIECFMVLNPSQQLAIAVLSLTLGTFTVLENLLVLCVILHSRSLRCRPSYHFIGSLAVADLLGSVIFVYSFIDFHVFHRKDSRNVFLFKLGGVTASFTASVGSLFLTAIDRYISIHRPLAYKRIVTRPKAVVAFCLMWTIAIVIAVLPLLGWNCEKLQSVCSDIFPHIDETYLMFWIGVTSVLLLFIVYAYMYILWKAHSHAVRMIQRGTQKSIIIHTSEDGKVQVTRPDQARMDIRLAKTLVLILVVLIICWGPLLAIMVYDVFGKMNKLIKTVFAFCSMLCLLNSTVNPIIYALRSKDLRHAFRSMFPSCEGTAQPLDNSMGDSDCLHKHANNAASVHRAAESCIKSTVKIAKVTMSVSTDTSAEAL

Compound | pKi (Cannabinoid receptor 1 [1]) | pKi (Cannabinoid receptor 2) | Activity [2] | Ratio Ki [3] | Intrinsic activity [4] | Activity [5] | pKi (Cannabinoid receptor 1 [6])
CC1(C)C2CCC(CNC(=O)c3nn(-c4ccc(Cl)cc4Cl)c4c3CCCc3ccc(Cl)cc3-4)C1C2 (stereo unspecified) | 7.76 | 7.87 | Active | 0.79 |  |  | 
CCCCCCC(C)(C)c1ccc([C@@H]2C[C@H](O)CC[C@H]2CCCO)c(O)c1 [CP-55940] | 9.21 |  |  |  |  |  | 
O=C(NC1CCCCC1)c1nn(-c2ccc(Cl)cc2Cl)c2c1CCCc1cc(Cl)ccc1-2 | 7.99 | 7.75 |  | 1.75 | 113% | 117% | 
O=C(NN1CCCCC1)c1nn(-c2ccc(Cl)cc2Cl)c2c1CCCc1cc(Cl)ccc1-2 | 8.09 and 8.38 | 7.25 and 7.07 |  | 13.3 | 111% | 115% | 6.90
O=C(NC[C@H]1CCCO1)c1nn(-c2ccc(Cl)cc2Cl)c2c1CCCc1cc(Cl)ccc1-2 | 7.61 | 7.28 |  | 2.1 | 113% | 118% | 
O=C(CC1CCCCC1)c1nn(-c2ccc(Cl)cc2Cl)c2c1CCCc1cc(Cl)ccc1-2 | 8.07 | 6.49 |  | 38.2 | 115% | 105% | 
O=C(NCC12CC3CC(CC(C3)C1)C2)c1nn(-c2ccc(Cl)cc2Cl)c2c1CCCc1cc(Cl)ccc1-2 | 7.72 | 7.88 |  | 0.69 | 98% | 108% | 
CC1(C)C2CCC(CNC(=O)c3nn(-c4ccc(Cl)cc4Cl)c4c3CCCc3cc(Cl)ccc3-4)C1C2 (stereo unspecified) | 8.44 | 7.71 | Active | 5.42 |  |  | 
Cc1c(C(=O)NN2CCCCC2)nn(-c2ccc(Cl)cc2Cl)c1-c1ccc(Cl)cc1 |  |  |  |  | 110% | 108% | 
O=C(NCC1CCCCC1)c1nn(-c2ccc(Cl)cc2Cl)c2c1CCCc1cc(Cl)ccc1-2 | 7.71 | 7.50 |  | 1.64 | 100% | 109% | 
O=C(NN1CCCC1)c1nn(-c2ccc(Cl)cc2Cl)c2c1CCCc1cc(Cl)ccc1-2 | 7.76 | 6.74 |  | 10.6 | 95% | 103% | 
OC(CC1CCCCC1)c1nn(-c2ccc(Cl)cc2Cl)c2c1CCCc1cc(Cl)ccc1-2 (stereo unspecified) | 6.81 | 7.62 |  | 0.16 |  |  | 
Cc1ccc(Cn2nc(C(=O)NCC3CCC4CC3C4(C)C)c3c2-c2ccc(Cl)cc2CCC3)cc1 (stereo unspecified) | 6.50 | 8.02 |  | 0.03 |  |  | 
O=C(NN1CCCCCC1)c1nn(-c2ccc(Cl)cc2Cl)c2c1CCCc1cc(Cl)ccc1-2 | 8.35 | 7.55 |  | 6.24 | 107% | 102% | 
Cc1ccc(Cn2nc(C(=O)NCC3CCC4CC3C4(C)C)c3c2-c2cc(Cl)ccc2CCC3)cc1 (stereo unspecified) | 6.77 | 7.29 |  | 0.3 |  |  | 
